According to patent US7138361B2, “Herbicidal heterocycles” (E. I. du Pont de Nemours and Company, priority 2000, dated 2006):

Legend:
Format in all cases: in vivo
[1] = test system: cocklebur (Xanthium strumarium); experiment: Test C preemergence; conditions: for Plant response rating (0 to 100), Cocklebur: visual evaluation after 12 to 14 days
Summary of the method: (§1)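 Response scores (0 no effect to 100 complete control) came from visual comparison with untreated controls 12 to 14 days after treatment. Preemergence application was made to seeded soil; postemergence, to plants at the 1- to 4-leaf stage.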

[2] = test system: Surinam grass (Brachiaria decumbens); experiment: Test C preemergence; conditions: for Plant response rating (0 to 100), Surinam grass: visual evaluation after 12 to 14 days
Summary of the method: as §1

[3] = test system: pigweed (Amaranthus retroflexus); experiment: Test C preemergence; conditions: for Plant response rating (0 to 100), Pigweed: visual evaluation after 12 to 14 days
Summary of the method: as §1

[4] = test system: woolly cupgrass (Eriochloa villosa); experiment: Test C preemergence; conditions: for Plant response rating (0 to 100), Cupgrass, Woolly: visual evaluation after 12 to 14 days
Summary of the method: as §1

[5] = test system: crabgrass (Digitaria sanguinalis); experiment: Test C preemergence; conditions: for Plant response rating (0 to 100), Crabgrass: visual evaluation after 12 to 14 days
Summary of the method: as §1

soybean (Glycine max) = experiment: Test C preemergence; conditions: for Plant response rating (0 to 100), Soybean: visual evaluation after 12 to 14 days
Summary of the method: as §1

[6] = test system: lambsquarters (Chenopodium album); experiment: Test C preemergence; conditions: for Plant response rating (0 to 100), Lambsquarters: visual evaluation after 12 to 14 days
Summary of the method: as §1

Nightshade = experiment: Test C preemergence
[7] = test system: common ragweed (Ambrosia elatior); experiment: Test C preemergence; conditions: for Plant response rating (0 to 100), Ragweed, Common: visual evaluation after 12 to 14 days
Summary of the method: as §1

[8] = test system: goosegrass (Eleusine indica); experiment: Test C preemergence; conditions: for Plant response rating (0 to 100), Goosegrass: visual evaluation after 12 to 14 days
Summary of the method: as §1

[9] = test system: cocklebur (Xanthium strumarium); experiment: Test B preemergence
Summary of the method: (§2)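 Greenhouse test: chemicals are formulated in a surfactant-containing non-phytotoxic solvent and applied either preemergence to planted seeds or postemergence to plants 2 to 18 cm tall. Response is rated visually versus controls after 13 to 15 days, 0 meaning no effect and 100 complete control.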

[10] = test system: Surinam grass (Brachiaria decumbens); experiment: Test B preemergence
Summary of the method: as §2

[11] = test system: giant foxtail (Setaria faberii); experiment: Test B preemergence
Summary of the method: as §2

rice (Oryza saliva) = experiment: Test B preemergence
Summary of the method: as §2

[12] = test system: barnyardgrass (Echinochloa crus-galli); experiment: Test B preemergence
Summary of the method: as §2

[13] = test system: pigweed (Amaranthus retroflexus); experiment: Test B preemergence
Summary of the method: as §2

[14] = test system: morning glory (Ipomoea hederacea); experiment: Test B preemergence
Summary of the method: as §2

[15] = test system: crabgrass (Digitaria sanguinalis); experiment: Test B preemergence
Summary of the method: as §2

[16] = test system: lambsquarters (Chenopodium album); experiment: Test B preemergence
Summary of the method: as §2

corn (Zea mays) = experiment: Test B preemergence
Summary of the method: as §2

[17] = test system: velvetleaf (Abutilon theophrasti); experiment: Test B preemergence
Summary of the method: as §2

[18] = Rate 62 g/ha, scale 0 to 100, 0 no effect, 100 complete control
[19] = Rate 125 g/ha, scale 0 to 100, 0 no effect, 100 complete control
[20] = preemergence, Rate 250 g/ha, scale 0 to 100, 0 no effect, 100 complete control
[21] = Rate 62 g/ha; scale 0 to 100, 0 no effect, 100 complete control
[22] = Preemergence, Rate 500 g/ha, scale 0 to 100, 0 no effect, 100 complete control
[23] = preemergence, Rate 125 g/ha, scale of 0 to 100 where 0 is no effect and 100 is complete control, 13 to 15 days
[24] = Preemergence, Rate 500 g/ha, scale 0 to 100
[25] = preemergence, Rate 31 g/ha, scale 0 to 100
[26] = preemergence, Rate 125 g/ha, scale 0 to 100, 0 no effect, 100 complete control

SMILES: Cc1ccc(N2CCC(n3ccc(C(C)(C)C)n3)C2=O)cc1OC(F)F (stereo not drawn) [Compound 79]
- Plant response rating, Cocklebur [1, 18]: 0
- Plant response rating, Cocklebur [1, 19]: 0
- Plant response rating (0 to 100), Cocklebur ([1]; preemergence, Rate 250 g/ha): 0
- Plant response rating (0 to 100), Cocklebur ([1]; preemergence, Rate 500 g/ha): 30
- Plant response rating, Surinam grass [2, 18]: 0
- Plant response rating, Surinam grass [2, 19]: 20
- Plant response rating (0 to 100), Surinam grass ([2]; preemergence, Rate 250 g/ha): 60
- Plant response rating (0 to 100), Surinam grass ([2]; preemergence, Rate 500 g/ha): 100
- Plant response rating, Pigweed [3, 19]: 10
- Plant response rating (0 to 100), Pigweed ([3]; preemergence, Rate 500 g/ha): 100
- Plant response rating, Pigweed [3, 20]: 20
- Plant response rating, Cupgrass, Woolly [4, 18]: 90
- Plant response rating, Cupgrass, Woolly [4, 19]: 90
- Plant response rating (0 to 100), Cupgrass, Woolly ([4]; preemergence, Rate 250 g/ha): 100
- Plant response rating (0 to 100), Cupgrass, Woolly ([4]; preemergence, Rate 500 g/ha): 100
- Plant response rating, Crabgrass [5, 18]: 100
- Plant response rating, Crabgrass [5, 19]: 100
- Plant response rating (0 to 100), Crabgrass ([5]; preemergence, Rate 250 g/ha): 100
- Plant response rating (0 to 100), Crabgrass ([5]; preemergence, Rate 500 g/ha): 100
- Plant response rating, Soybean (soybean (Glycine max); [19]): 0
- Plant response rating (0 to 100), Soybean (soybean (Glycine max); preemergence, Rate 500 g/ha): 50
- Plant response rating, Soybean (soybean (Glycine max); [20]): 0
- Plant response rating, Lambsquarters [6, 18]: 100
- Plant response rating, Lambsquarters [6, 19]: 100
- Plant response rating (0 to 100), Lambsquarters ([6]; preemergence, Rate 500 g/ha): 100
- Plant response rating, Lambsquarters [6, 20]: 100
- Plant response rating, Nightshade (Nightshade; [21]): 20
- Plant response rating, Nightshade (Nightshade; Rate 125 g/ha; scale 0 to 100, 0 no effect, 100 complete control): 50
- Plant response rating, Nightshade (Nightshade; Rate 250 g/ha, scale 0 to 100, 0 no effect, 100 complete control): 50
- Plant response rating, Ragweed, Common [7, 19]: 100
- Plant response rating (0 to 100), Ragweed, Common ([7]; preemergence, Rate 500 g/ha): 100
- Plant response rating, Ragweed, Common [7, 20]: 100
- Plant response rating, Goosegrass [8, 18]: 80
- Plant response rating, Goosegrass [8, 19]: 90
- Plant response rating (0 to 100), Goosegrass ([8]; preemergence, Rate 250 g/ha): 100
- Plant response rating (0 to 100), Goosegrass ([8]; preemergence, Rate 500 g/ha): 100
- Plant response rating, Cocklebur [9, 22]: 0
- Plant response rating, Cocklebur [9, 23]: 0
- Plant response rating, Surinam grass [10, 22]: 90
- Plant response rating, Surinam grass [10, 23]: 70
- Plant response rating, Foxtail, Giant [11, 22]: 60
- Plant response rating, Foxtail, Giant [11, 23]: 0
- Plant response rating, Rice (rice (Oryza saliva); [22]): 90
- Plant response rating, Rice (rice (Oryza saliva); [23]): 50
- Plant response rating, Barnyardgrass [12, 22]: 100
- Plant response rating, Barnyardgrass [12, 23]: 70
- Plant response rating, Pigweed [13, 22]: 100
- Plant response rating, Pigweed [13, 23]: 100
- Plant response rating, Morningglory [14, 22]: 100
- Plant response rating, Morningglory [14, 23]: 0
- Plant response rating, Crabgrass [15, 22]: 100
- Plant response rating, Crabgrass [15, 23]: 100
- Plant response rating, Lambsquarters [16, 22]: 100
- Plant response rating, Lambsquarters [16, 23]: 100
- Plant response rating, Corn (corn (Zea mays); [22]): 0
- Plant response rating, Corn (corn (Zea mays); [23]): 0
- Plant response rating, Velvetleaf [17, 22]: 90
- Plant response rating, Velvetleaf [17, 23]: 0

SMILES: CCC(CC)c1ccn(C2SCN(c3cccc(C(F)(F)F)c3)C2=O)n1 (stereo not drawn) [Compound 25]
- Plant response rating, Cocklebur [1, 24]: 70
- Plant response rating, Cocklebur [1, 18]: 0
- Plant response rating, Cocklebur [1, 25]: 0
- Plant response rating (0 to 100), Cocklebur ([1]; preemergence, Rate 250 g/ha): 100
- Plant response rating, Cocklebur [1, 26]: 0
- Plant response rating, Surinam grass [2, 24]: 80
- Plant response rating, Surinam grass [2, 18]: 40
- Plant response rating, Surinam grass [2, 25]: 20
- Plant response rating (0 to 100), Surinam grass ([2]; preemergence, Rate 250 g/ha): 80
- Plant response rating, Surinam grass [2, 26]: 80
- Plant response rating, Pigweed [3, 24]: 90
- Plant response rating, Pigweed [3, 18]: 60
- Plant response rating, Pigweed [3, 25]: 100
- Plant response rating (0 to 100), Pigweed ([3]; preemergence, Rate 250 g/ha): 90
- Plant response rating, Pigweed [3, 26]: 100
- Plant response rating, Cupgrass, Woolly [4, 24]: 100
- Plant response rating, Cupgrass, Woolly [4, 18]: 80
- Plant response rating, Cupgrass, Woolly [4, 25]: 60
- Plant response rating (0 to 100), Cupgrass, Woolly ([4]; preemergence, Rate 250 g/ha): 100
- Plant response rating, Cupgrass, Woolly [4, 26]: 100
- Plant response rating, Crabgrass [5, 24]: 100
- Plant response rating, Crabgrass [5, 18]: 100
- Plant response rating, Crabgrass [5, 25]: 100
- Plant response rating (0 to 100), Crabgrass ([5]; preemergence, Rate 250 g/ha): 100
- Plant response rating, Crabgrass [5, 26]: 100
- Plant response rating, Soybean (soybean (Glycine max); [24]): 60
- Plant response rating, Soybean (soybean (Glycine max); [18]): 0
- Plant response rating, Soybean (soybean (Glycine max); [25]): 20
- Plant response rating (0 to 100), Soybean (soybean (Glycine max); preemergence, Rate 250 g/ha): 50
- Plant response rating, Soybean (soybean (Glycine max); [26]): 30
- Plant response rating, Lambsquarters [6, 24]: 100
- Plant response rating, Lambsquarters [6, 18]: 100
- Plant response rating, Lambsquarters [6, 25]: 100
- Plant response rating (0 to 100), Lambsquarters ([6]; preemergence, Rate 250 g/ha): 100
- Plant response rating, Lambsquarters [6, 26]: 100
- Plant response rating, Nightshade (Nightshade; Rate 31 g/ha, scale 0 to 100): 20
- Plant response rating, Nightshade (Nightshade; [21]): 100
- Plant response rating, Nightshade (Nightshade; [19]): 100
- Plant response rating, Nightshade (Nightshade; Rate 500 g/ha, scale 0 to 100): 100
- Plant response rating, Ragweed, Common [7, 24]: 100
- Plant response rating, Ragweed, Common [7, 18]: 70
- Plant response rating, Ragweed, Common [7, 25]: 0
- Plant response rating (0 to 100), Ragweed, Common ([7]; preemergence, Rate 250 g/ha): 70
- Plant response rating, Ragweed, Common [7, 26]: 70
- Plant response rating, Goosegrass [8, 24]: 100
- Plant response rating, Goosegrass [8, 18]: 100
- Plant response rating, Goosegrass [8, 25]: 100
- Plant response rating (0 to 100), Goosegrass ([8]; preemergence, Rate 250 g/ha): 100
- Plant response rating, Goosegrass [8, 26]: 100
- Plant response rating, Cocklebur [9, 22]: 0
- Plant response rating, Cocklebur [9, 26]: 0
- Plant response rating, Surinam grass [10, 22]: 80
- Plant response rating, Surinam grass [10, 26]: 80
- Plant response rating, Foxtail, Giant [11, 22]: 100
- Plant response rating, Foxtail, Giant [11, 26]: 100
- Plant response rating, Rice (rice (Oryza saliva); [22]): 0
- Plant response rating, Rice (rice (Oryza saliva); [26]): 0
- Plant response rating, Barnyardgrass [12, 22]: 100
- Plant response rating, Barnyardgrass [12, 26]: 100
- Plant response rating, Pigweed [13, 22]: 100
- Plant response rating, Pigweed [13, 26]: 100
- Plant response rating, Morningglory [14, 22]: 90
- Plant response rating, Morningglory [14, 26]: 0
- Plant response rating, Crabgrass [15, 22]: 100
- Plant response rating, Crabgrass [15, 26]: 100
- Plant response rating, Lambsquarters [16, 22]: 100
- Plant response rating, Lambsquarters [16, 26]: 100
- Plant response rating, Corn (corn (Zea mays); [22]): 0
- Plant response rating, Corn (corn (Zea mays); [26]): 0
- Plant response rating, Velvetleaf [17, 22]: 0
- Plant response rating, Velvetleaf [17, 26]: 0
